The assay addresses T1, human glucagon receptor (hGCGR) (Homo sapiens, UniProt P47871).
T1 construct: host or cells: HEK293
Description: HTRF second messenger cAMP response experiment (called cell viability test) in HEK293 cells with glucagon peptide segment. The following applies: for inhibitory activity of glucagon receptor (in words, from cAMP response curves): FIG. 5 / FIG. 14. Type of assay: cell-based. As for the experimental part: In order to determine the antagonistic activity of the compound A on the glucagon receptor in the above embodiments, a cell viability test is carried out. The specific implementation is as follows.
A known human glucagon receptor (hGCGR) antagonist drug is selected as a positive control, and the compound A in the above embodiments, a glucagon peptide segment (that is, human full-length glucagon), and human embryonic kidney cells containing target receptor molecules are mixed. The glucagon peptide segment binds to hGCGR to activate the hGCGR signaling pathway and release the second messenger cAMP. The compound A acts as an antagonist to inhibit the activity of hGCGR.
In an exemplary embodiment, a known hGCGR antagonist drug (L-168,049) is selected as a positive control. […] In addition, in view of the human glucagon receptor on the cell membrane of human embryonic kidney cells HEK293, HEK293 is used to test the drug activity of the human glucagon antagonist. In this embodiment, different concentrations of compound A of the present disclosure and the positive control are respectively mixed with glucagon peptide segments and HEK293 cells, the second messenger cAMP is detected through homogeneous time resolved fluorescence (HTRF), and a half maximal inhibitory concentration value of each compound is calculated according to the intensity value of HTRF.
In an exemplary embodiment, the activity of the compound A is tested using the HTRF technique. Specifically, after activation of the glucagon receptor by the glucagon peptide segment, the second messenger cAMP is released from the glucagon receptor cells, the second messenger cAMP may be detected by HTRF, and the half maximal inhibitory concentration (IC50) of the tested compound may be calculated according to the fluorescence intensity.
In an exemplary embodiment, 11 identical concentration gradients are set for the compounds A1 and A2 respectively. The activities of the compounds A1 and A2 are determined by the HTRF second messenger cAMP response experiment in triplicate.
Step S910. Select an antagonist drug of hGCGR as a positive control, and mix each target drug small molecule, a glucagon peptide segment, and human embryonic kidney cells containing the target receptor molecule. The glucagon peptide segment binds to hGCGR to activate the hGCGR signaling pathway and release the second messenger cAMP. The target drug molecule acts as an antagonist to inhibit the activity of hGCGR.
In an exemplary embodiment, an antagonist drug (such as L-168,049) of hGCGR is selected as a positive control. In addition, in view of the human glucagon receptor on the cell membrane of human embryonic kidney cells (such as HEK293), HEK293 may be used to test the drug activity of the human glucagon antagonist. The target drug small molecule, the glucagon peptide segment, and the HEK293 cells containing the target receptor molecule are mixed. The glucagon peptide segment is used to bind to hGCGR to activate the hGCGR signaling pathway and promote the release of the second messenger cAMP. The target drug molecule acts as an antagonist to inhibit the activity of hGCGR.
Step S920. Detect the second messenger cAMP through HTRF, and determine a half maximal inhibitory concentration value of each target drug small molecule according to an intensity value of HTRF.
In an exemplary embodiment, the activity of each target drug small molecule (such as 30 target drug small molecules shown in Table 2) is tested by using the HTRF technique. Specifically, after activation of the glucagon receptor by the glucagon peptide segment, the second messenger cAMP is released from the glucagon receptor cells, the second messenger cAMP may be detected by HTRF, and the half maximal inhibitory concentration (IC50) of the drug molecule may be calculated according to the fluorescence intensity. […]
Background: TR-FRET usually uses a lanthanide donor and a delayed reading to cut background.

Where [1] appears, read: concentration gradient LogM −5, HEK293 cells, glucagon peptide segment, HTRF cAMP, triplicate columns.
Where [2] appears, read: concentration gradient LogM −6.908485, HEK293 cells, glucagon peptide segment, HTRF cAMP, triplicate columns.
Setting [3] is: concentration gradient LogM −7.862728, HEK293 cells, glucagon peptide segment, HTRF cAMP, triplicate columns.
The mark [4] stands for this setting: concentration gradient LogM −5.477121, HEK293 cells, glucagon peptide segment, HTRF cAMP, triplicate columns.
The mark [5] stands for this setting: concentration gradient LogM −5.954243, HEK293 cells, glucagon peptide segment, HTRF cAMP, triplicate columns.
[6] abbreviates: concentration gradient LogM −7.385606, HEK293 cells, glucagon peptide segment, HTRF cAMP, triplicate columns.
[7] abbreviates: concentration gradient LogM −8.339849, HEK293 cells, glucagon peptide segment, HTRF cAMP, triplicate columns.
The mark [8] stands for this setting: concentration gradient LogM −9.294091, HEK293 cells, glucagon peptide segment, HTRF cAMP, triplicate columns.

The term IC50 denotes the concentration at which inhibition is half-maximal. A lower IC50 goes with inhibition by little substance.

Several values for one entry are separate records, joined by “and”; a condition that tells them apart may be missing. Equal values may be shown once. Read-outs that look alike come from different tables or passages of the source. Where only a bound is given, the exact number is not on record here.

T1 sequence (P47871 26-477): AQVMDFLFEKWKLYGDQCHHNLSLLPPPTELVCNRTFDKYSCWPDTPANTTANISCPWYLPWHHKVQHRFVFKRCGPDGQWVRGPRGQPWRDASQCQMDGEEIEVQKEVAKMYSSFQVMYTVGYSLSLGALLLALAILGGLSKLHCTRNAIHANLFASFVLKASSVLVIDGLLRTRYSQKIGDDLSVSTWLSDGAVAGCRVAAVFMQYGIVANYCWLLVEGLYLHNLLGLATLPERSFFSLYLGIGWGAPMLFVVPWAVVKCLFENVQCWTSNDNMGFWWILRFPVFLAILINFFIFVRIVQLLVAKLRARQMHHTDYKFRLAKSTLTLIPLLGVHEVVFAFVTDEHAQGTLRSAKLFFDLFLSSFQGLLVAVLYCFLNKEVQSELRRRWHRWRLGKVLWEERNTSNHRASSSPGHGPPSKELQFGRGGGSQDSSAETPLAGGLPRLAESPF

With `O=S(=O)(Nc1ccc(Cl)cc1)c1ccc(NC(=S)Nc2ccccc2)cc1` [Compound C4], the IC50 was greater than 10 µM.
The compound `COc1ccc2cc(C(=O)NCCNc3ccc(C)nn3)[nH]c2c1` [Compound C15] registered a concentration for half-maximal inhibition (IC50) greater than 10 µM. Moreover, the Inhibition percentage under setting [1] is 2.451% and 0.02571% and 3.529%. Further, the Inhibition percentage under setting [2] is −19.189% and −13.1875% and −18.6652%. Also, the Inhibition percentage under setting [3] is 3.911% and 12.71% and 11.16%.
`CCCOc1ccc(Br)cc1-c1cc(-c2ccc(Cl)cc2)[nH]c1-c1ccncc1` [L-168,049, 4-[3-(5-bromo-2-propoxyphenyl)-5-(4-chlorophenyl)-1H-pyrrol-2-yl]pyridine, reference compound]: the 50% inhibitory concentration (IC50) (HEK293, cAMP HTRF, 11 concentrations, L-168,049 positive control per group of ten compounds) was 0.0615 µM and 0.0422 µM. For the same compound, the Inhibition percentage runs as follows: under setting [1], 100.4281% and 100.5604% and 100.8895%; (concentration gradient LogM −5, triplicate, HEK293, cAMP HTRF) 100.4281 percentage; under setting [4], 98.6132% and 96.62% and 98.1315%; (concentration gradient LogM −5.477121, triplicate, HEK293, cAMP HTRF) 98.6132 percentage; under setting [5], 98.05% and 95.17% and 94.46%; (concentration gradient LogM −5.954243, triplicate, HEK293, cAMP HTRF) 98.05 percentage. For the same compound, the Inhibition percentage by setting is: (concentration gradient LogM −6.431364, HEK293 cells, glucagon peptide segment, HTRF cAMP, triplicate columns) 93.05% and 91.9% and 88.0059%; (concentration gradient LogM −6.431364, triplicate, HEK293, cAMP HTRF) 93.05 percentage; under setting [2], 89.46% and 74.79% and 78.16%; (concentration gradient LogM −6.908485, triplicate, HEK293, cAMP HTRF) 89.46 percentage; under setting [6], 46.69% and 16.31%; (concentration gradient LogM −7.385606, triplicate, HEK293, cAMP HTRF) 47.8261 percentage. The Inhibition percentage by setting is: under setting [3], 33.52% and 15.3532%; (concentration gradient LogM −7.862728, triplicate, HEK293, cAMP HTRF) 28.98 percentage; under setting [7], −19.5336% and −9.209%; (concentration gradient LogM −8.339849, triplicate, HEK293, cAMP HTRF) 3.941 percentage; (concentration gradient LogM −8.81697, triplicate, HEK293, cAMP HTRF) −8.051 percentage; under setting [8], 19.0859% and −1.84%. Further, the Inhibition percentage is, setting by setting: (concentration gradient LogM −9.294091, triplicate, HEK293, cAMP HTRF) −3.763 percentage; (concentration gradient LogM −9.771213, HEK293 cells, glucagon peptide segment, HTRF cAMP, triplicate columns) −1.911% and 6.132% and 1.646%; (concentration gradient LogM −9.771213, triplicate, HEK293, cAMP HTRF) −1.911 percentage.
On to `COc1cc(/C=N/NC(=O)CN2C(=O)N[C@H]3NC(=O)N[C@@H]32)cc(OC)c1O` [Compound C12], for which the 50% inhibitory concentration (IC50) was greater than 10 µM.
`O=S(=O)(NCCc1ccccc1)c1ccc(NC(=S)Nc2ccccc2)cc1` [Compound C2] returned an IC50 greater than 10 µM. Besides, the Inhibition percentage under setting [8] was 1.325% and 0.8006% and 5.407%.
For `O=C(CSc1nc2ccccc2[nH]1)NC(=O)Nc1ccc2c(c1)OCO2` [Compound C21], the IC50 is greater than 10 µM.
With `CCC(=O)NC(=S)Nc1ccc(NC(=S)NC(=O)c2cccc(OC)c2)cc1` [Compound C9], the half-inhibitory concentration (IC50) was greater than 10 µM. Moreover, the Inhibition percentage under setting [6] was 3.734% and −2.05% and −2.9843%. Also, for the setting “concentration gradient LogM −8.81697, HEK293 cells, glucagon peptide segment, HTRF cAMP, triplicate columns”, the Inhibition percentage is 8.521% and 5.537% and 14.34%.
Compound `O=C(CCNC(=O)NC1CCCCC1)NNc1ccccc1C(F)(F)F` [Compound C27] registered an IC50 greater than 10 µM. Besides, the Inhibition percentage under setting [7] was −24.7315% and −29.8299% and −20.459%.
In turn, `CSc1cccc(NC(=O)CCNS(=O)(=O)c2ccc(NC(C)=O)cc2)c1` [Compound C17] came in with an IC50 greater than 10 µM.
Turning to `O=C(NCCCCCCNC(=O)NCc1cccnc1)NCc1cccnc1` [Compound C5], the IC50 is greater than 10 µM.
For the compound `Cc1ccc(-c2csc(NC(=O)c3ccc4c(c3)NC(=O)CS4)n2)c(C)c1` [Compound C23], under setting [1], the Inhibition percentage was 75.66% and 75.14% and 57.58%.
Turning to `COc1ccc(NC(=O)c2c(O)c3c4c(sc3[nH]c2=O)C[C@@H](C)CC4)cc1Cl` [Compound C13, (7S)—N-(3-chloro-4-methoxyphenyl)-4-hydroxy-7-methyl-2-oxo-5,6,7,8-tetrahydro-1H-[1]benzothiolo[2,3-b]pyridine-3-carboxamide], the half-inhibitory concentration (IC50) stood at 0.446 µM and the “inhibitory activity of glucagon receptor (in words, from cAMP response curves)” value is “have the activity”. Besides, under “listed as A1”, the “inhibitory activity of glucagon receptor (in words, from cAMP response curves)” value is reported as “good inhibitory activity of glucagon receptor”. In addition, the Inhibition percentage under setting [1] is 98.37% and 95.2799% and 96.15%. Also, the Inhibition percentage (concentration gradient LogM −5, triplicate, HEK293, cAMP HTRF, listed as A1) was 98.37 percentage and 95.2799 percentage and 96.15 percentage. Besides, the Inhibition percentage under setting [4] was 87.84% and 83.28% and 83.51%. The Inhibition percentage (concentration gradient LogM −5.477121, triplicate, HEK293, cAMP HTRF, listed as A1) is 87.84 percentage and 83.28 percentage and 83.51 percentage. Moreover, the Inhibition percentage under setting [5] is 75.44% and 83.24% and 79.3%. Besides, under “concentration gradient LogM −5.954243, triplicate, HEK293, cAMP HTRF, listed as A1”, the Inhibition percentage was 75.44 percentage and 83.24 percentage and 79.3 percentage. Also, the Inhibition percentage under setting [3] was 7.62% and −2.135% and −0.781%.
`O=C(CCCCC(=O)NNC(=S)Nc1ccc(Br)cc1)NNC(=S)Nc1ccc(Br)cc1` [Compound C6] came in with an IC50 greater than 10 µM. Under setting [3], the Inhibition percentage was −28.7792% and −19.4453% and −24.9236%.
Regarding `CNC(=O)NC(=O)CSc1nc2cc(-c3ccc(F)cc3)sc2c(=O)n1N` [Compound C30], the IC50 was greater than 10 µM.
Compound `CC(=O)c1ccccc1NC(=O)c1c(O)c2c3c(sc2[nH]c1=O)C[C@H](C)CC3` [Compound C11] returned an IC50 greater than 10 µM. Moreover, the Inhibition percentage under setting [1] was 21.46% and 27.01% and 27.99%. Moreover, the Inhibition percentage under setting [7] was 11.37% and 16.25% and 12.52%.
On to `O=C(NNC(=S)Nc1ccccc1)[C@H](O)[C@@H](O)C(=O)NNC(=S)Nc1ccccc1` [Compound C7], for which the concentration for half-maximal inhibition (IC50) was greater than 10 µM. Further, the Inhibition percentage under setting [3] was −25.3779% and −25.5195% and −24.1306%. In addition, the Inhibition percentage under setting [8] was −8.847% and −15.2446% and −18.5536%.
The compound `CC(C)(C)NC(=O)NC(=O)CSc1nc(-c2cccs2)c(-c2cccs2)[nH]1` [Compound C25] displayed an IC50 greater than 10 µM.
In the case of `O=C(CNC(=O)NCCCN1CCCCCC1=O)Nc1ccc(F)c(F)c1` [Compound C22], the IC50 was greater than 10 µM. Under setting [6], the Inhibition percentage is −5.735% and 1.578% and −3.875%.
Consider `O=C(CNC(=O)NCCCOC1CCCCC1)Nc1ccc(F)c(F)c1` [Compound C19], for which the IC50 is greater than 10 µM.
Compound `CNC(=O)Cc1ccccc1NC(=O)NCCC(=O)NC1CCCC1` [Compound C24] came in with an IC50 greater than 10 µM.

For the origin of these results see patent US12441739B2, “Glucagon receptor antagonist and use thereof” (LANZHOU UNIVERSITY, priority 2021, dated 2025).
